Measurements reported in patent publication US20090118263A1, “Novel Adenine Compound” (priority 2005, published 2009).

Target: T1, human TLR7 (Homo sapiens, UniProt Q9NYK1)
T1 construct: expressed in transfected cells; host or cells: HEK293 (hTLR7/seap-293), stably transfected with the TLR7 plasmid and the NF-kB-SEAP reporter plasmid
T1 sequence (Q9NYK1 27-1049): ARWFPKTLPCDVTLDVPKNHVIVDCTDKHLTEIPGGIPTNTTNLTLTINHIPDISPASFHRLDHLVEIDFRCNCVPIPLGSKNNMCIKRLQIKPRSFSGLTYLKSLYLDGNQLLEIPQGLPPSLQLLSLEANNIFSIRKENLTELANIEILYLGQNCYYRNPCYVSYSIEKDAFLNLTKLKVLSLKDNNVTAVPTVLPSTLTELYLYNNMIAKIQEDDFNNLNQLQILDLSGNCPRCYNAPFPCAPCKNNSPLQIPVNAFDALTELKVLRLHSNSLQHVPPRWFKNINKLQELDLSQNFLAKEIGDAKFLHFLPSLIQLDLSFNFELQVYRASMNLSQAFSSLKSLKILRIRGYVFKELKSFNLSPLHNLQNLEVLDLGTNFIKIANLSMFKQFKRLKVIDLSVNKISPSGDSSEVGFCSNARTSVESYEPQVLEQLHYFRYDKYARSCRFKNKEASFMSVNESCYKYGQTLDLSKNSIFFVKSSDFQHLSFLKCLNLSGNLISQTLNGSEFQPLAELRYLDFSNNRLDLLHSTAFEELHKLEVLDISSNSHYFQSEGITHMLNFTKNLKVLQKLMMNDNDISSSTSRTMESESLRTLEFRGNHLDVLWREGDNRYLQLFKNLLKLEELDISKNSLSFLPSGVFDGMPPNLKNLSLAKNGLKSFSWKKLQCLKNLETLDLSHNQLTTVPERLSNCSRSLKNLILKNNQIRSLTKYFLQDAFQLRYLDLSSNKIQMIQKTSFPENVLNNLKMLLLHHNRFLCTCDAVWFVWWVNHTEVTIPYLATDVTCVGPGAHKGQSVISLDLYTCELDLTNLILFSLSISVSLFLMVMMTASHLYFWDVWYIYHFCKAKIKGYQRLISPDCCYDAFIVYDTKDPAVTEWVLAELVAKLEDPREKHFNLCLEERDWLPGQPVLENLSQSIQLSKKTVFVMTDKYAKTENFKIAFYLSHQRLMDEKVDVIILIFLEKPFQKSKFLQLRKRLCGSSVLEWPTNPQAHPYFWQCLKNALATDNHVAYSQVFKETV
Test: Human TLR7 reporter assay (NF-kB-SEAP in HEK293 cells)
Type: cell-based
Details: HEK293 cells stably carrying human TLR7 plasmid and NF-kB-SEAP reporter plasmid; 20 hours culture; 1 nM-10 μM; absorbance 405 nm; read-out: Human TLR7 binding activity (EC50)
Description: Human TLR7 Reporter Assay
HEK293 cells in which human TLR7 or rat TLR7 plasmid and reporter plasmid (NF-kB-SEAP) are stably introduced are dispersed in DMEM broth (10% FBS, 1% NEAA, 10 ug/mL blastocidin S HCl, 100 ug/mL Zeocin), and were seeded to 96 well plate per 90 μl/well (hTLR7/seap-293:20000 cells/well, rTLR7/seap-293:25000 cells/well).
Test compound (DMSO stock solution (2 μl) was diluted with the broth (200 μl) by 100 times) was added to the seeded cells to a 96 well plate (10 μl/well) (final concentration; 1 nM-10 μM, common ratio). After stirring by tapping side of the plate, the cells were cultured in a CO2 incubator for 20 hours. A substrate (50 μl/well) for reporter assay (substrate for SEAP, pNPP) was added to cells stimulated by test sample. Ten minutes after adding the substrate, the reaction quenching solution (4N NaOH) was added by 50 μl/well to cease enzymatic reaction. Sealing a top seal A on the plate, the absorbance was measured by a micro plate reader (405 nm).

| Structure (SMILES) | EC50 |
| --- | --- |
| CCCCOc1nc(N)c2[nH]c(=O)n(Cc3ccc(OCCCN(C)Cc4cccc(CC(=O)OC)c4)cc3)c2n1 [Example 1, 2-Butoxy-7,8-dihydro-9-[(3-[{N-methyl-N-[3-(methoxycarbonylmethyl)benzyl]}amino]propoxy)benzyl]-8-oxoadenine] | 26 nM |
| CCCCOc1nc(N)c2[nH]c(=O)n(Cc3ccc(OCCCNCc4cccc(CC(=O)OC)c4)cc3)c2n1 [Example 3, 2-Butoxy-7,8-dihydro-9-([3-{N-[3-(methoxycarbonylmethyl)benzyl]amino}propoxy]benzyl)-8-oxoadenine] | 20.4 nM |
| CCCCOc1nc(N)c2[nH]c(=O)n(Cc3ccc(CN(CCCO)Cc4cccc(CC(=O)OC)c4)cc3)c2n1 [Example 5, 2-Butoxy-7,8-dihydro-9-(4-{N-(3-hydroxypropyl)-N-[3-(methoxycarbonylmethyl)benzyl]aminomethyl}benzyl)-8-oxoadenine] | 40.8 nM |
| CCCCOc1nc(N)c2[nH]c(=O)n(Cc3ccc(CN(CCCN4CCOCC4)Cc4cccc(CC(=O)OC)c4)cc3)c2n1 [Example 7, 2-Butoxy-7,8-dihydro-9-(4-{N-[3-(methoxycarbonylmethyl)benzyl]-N-(3-morpholin-4-ylpropyl)aminomethyl}benzyl)-8-oxoadenine] | 24.1 nM |
| CCCCOc1nc(N)c2[nH]c(=O)n(Cc3ccc(CN(CCCN4CCOCC4)Cc4cccc(CC(=O)O)c4)cc3)c2n1 [Example 8, 2-Butoxy-7,8-dihydro-9-(4-{N-[3-(hydroxycarbonylmethyl)benzyl]-N-(3-morpholin-4-ylpropyl)aminomethyl}benzyl)-8-oxoadenine] | 253 nM |
| CCCCOc1nc(N)c2[nH]c(=O)n(Cc3ccc(CN(C)CCOc4cccc(CC(=O)OC)c4)cc3)c2n1 [Example 9, 2-Butoxy-7,8-dihydro-9-[4-(N-{2-[3-(methoxycarbonylmethyl)phenoxy]ethyl}-N-methylaminomethyl)benzyl]-8-oxoadenine] | 28.3 nM |
| CCCCOc1nc(N)c2[nH]c(=O)n(Cc3ccc(CN(C)CCOc4cc(CC(=O)OC)ccc4OC)cc3)c2n1 [Example 11, 2-Butoxy-7,8-dihydro-9-[4-(N-{2-[2-methoxy-5-(methoxycarbonylmethyl)phenoxy]ethyl}-N-methylaminomethyl)benzyl]-8-oxoadenine] | 21 nM |
| CCCCOc1nc(N)c2[nH]c(=O)n(Cc3ccc(OCCCCNCc4cccc(CC(=O)OC)c4)nc3)c2n1 [Example 12, 2-Butoxy-7,8-dihydro-9-{6-[4-(3-methoxycarbonylmethylbenzyl)aminobutoxy]pyridin-3-ylmethyl}-8-oxoadenine] | 9.1 nM |
| CCCCOc1nc(N)c2[nH]c(=O)n(Cc3ccc(OCCCCN(C)Cc4cccc(CC(=O)OC)c4)nc3)c2n1 [Example 15, 2-Butoxy-7,8-dihydro-9-[6-(4-[{N-methyl-N-[3-(methoxycarbonylmethyl)benzyl]}amino]butoxy)pyridin-3-ylmethyl]-8-oxoadenine] | 9.4 nM |
| CCCCOc1nc(N)c2[nH]c(=O)n(Cc3ccc(OCCCCN(C)Cc4cccc(CC(=O)O)c4)nc3)c2n1 [Example 16, 2-Butoxy-7,8-dihydro-9-[6-(4-[{N-[3-(carboxymethyl)benzyl]-N-methyl}amino]butoxy)pyridin-3-ylmethyl]-8-oxoadenine] | 29.6 nM |
| CCCCOc1nc(N)c2[nH]c(=O)n(Cc3ccc(OCCCCN(CCCN4CCOCC4)Cc4cccc(CC(=O)OC)c4)nc3)c2n1 [Example 17, 2-Butoxy-7,8-dihydro-9-(6-[4-{[N-(3-methoxycarbonylmethylbenzyl)-N-(3-morpholinopropyl)]amino}butoxy]pyridin-3-ylmethyl)-8-oxoadenine] | 20.7 nM |
| COCCOc1nc(N)c2[nH]c(=O)n(Cc3ccc(CN(C)CCOc4cccc(CC(=O)OC)c4)cc3)c2n1 [Example 19, 7,8-Dihydro-9-[4-{N-[2-(3-methoxycarbonylmethylphenyl-1-yl)oxyethyl]-N-methylamino}methylbenzyl]-2-(2-methoxyethoxy)-8-oxoadenine] | 51.5 nM |
